Test results reported in US20030083304A1, “CCAAT/enhancer binding protein-beta (C/EBPbeta) is a molecular target for cancer treatment” (priority 2001, published 2003).
Marks after values point to notes of the source that are not given here.

What was measured:
epidermal keratinocytes = assay: Apoptotic epidermal keratinocytes in DMBA-treated mice; format: in vivo, mouse; details: for Apoptotic Keratinocytes (%): single application 400 nmol DMBA
From the text: The lack of tumor development in carcinogen treated C/EPBβ-null mice could be due to apoptosis of C/EBPβ-deficient keratinoyctes that have acquired oncogenic Ha-ras lesions. To examine this possibility we treated mice with DMBA and scored the number of apoptotic keratinocytes in C/EBPβ-null and wild type epidermis using the cytological parameters described in the Methods. […] Similar fold increases in apoptotic cells were observed using TUNEL staining (data not shown). To determine if C/EBPβ-null mice also display increased apoptosis in response to UVB irradiation, a potent inducer of apoptosis and DNA damage, wild type and C/EBPβ-null mice were irradiated with UVB doses of 50, 100 and 200 mJ/cm^2. While all UVB doses increased the number of apoptotic epidermal keratinocytes, there was no difference between wild type and mutant mice (data not shown).

mouse skin = details: in vivo
C/EBPβ = assay: Ha-ras (12V)-induced activation of C/EBPβ in mouse keratinocytes; format: cell-based
From the text: A MAPK site has been identified in C/EBPβ. Replacing Thr-188 with an Ala-188 within this site completely blocks Ras-induced activation of C/EBPβ. […] Thus, the MAPK site in C/EBPβ, which is conserved in mouse, rat, bovine and human, is important in Ras signaling. Accordingly, useful compounds of the present invention are MAPK inhibitors such as PD98059, or compounds that bind the MAPK site in C/EBPβ and thus block oncogenic ras-induced activation.

In the case of Cc1c2ccccc2c(C)c2c1ccc1ccccc12 [DMBA, 7,12-dimethylbenz[a]anthracene], the “increase in the number of basal apoptotic keratinocytes, C/EBPβ-null vs wild type mice” value (epidermal keratinocytes; DMBA-treated) is reported as 17 fold, the “Apoptotic Keratinocytes (%)” value (epidermal keratinocytes; C/EBPβ −/− mice) is reported as 1.73 ± 0.14^ab % and the “Apoptotic Keratinocytes (%)” value (epidermal keratinocytes; wild type mice) is reported as 0.10 ± 0.02^a %. For the same compound, the average papillomas/mouse (mouse skin; 129/Sv x C57BL/6 (wild type)) was 12 papillomas/mouse, the papilloma incidence (mouse skin) was “All of the wild-type mice developed papillomas” and the resistance to carcinogenesis (mouse skin) was “completely resistant”.

In the case of COc1cccc(-c2cc(=O)c3ccccc3o2)c1N [PD98059], the “Ha-ras (12V)-induced activation of C/EBPβ” value (C/EBPβ) is reported as “partially blocks”.

For ClC1(Cl)C2(Cl)C3(Cl)C4(Cl)C(Cl)(Cl)C5(Cl)C3(Cl)C1(Cl)C5(Cl)C24Cl (centres unmarked) [mirex], the tumor development (mouse skin) was “refractory”.
